In the NIST ThermoML archive (doi:10.1021/acs.jced.8b00755):
Several values for one entry are separate records, joined by “and”; a condition that tells them apart may be missing. Identical values can stand only once.

Experiments:
[1] = refractive index (Na D-line) (dimensionless); xn = mol fraction of the nth substance listed; details: 298.15 K, 101.3 kPa, Liquid, Standard Abbe refractometry
[2] = relative permittivity at zero frequency (dimensionless); xn = mol fraction of the nth substance listed; details: 298.15 K, 101.3 kPa, Liquid, Coaxial cylinder capacitor
[3] = 298.15 K; 101.3 kPa; Liquid; Vibrating tube method
[4] = refractive index (Na D-line) (dimensionless); details: 298.15 K; 101.3 kPa; Liquid; Standard Abbe refractometry
[5] = relative permittivity at zero frequency (dimensionless); details: 298.15 K; 101.3 kPa; Liquid; Coaxial cylinder capacitor
[6] = xn = mol fraction of the nth substance listed; details: 298.15 K, 101.3 kPa, Liquid, Vibrating tube method

OC1CCCCC1 [cyclohexanol] + O=C1CCCCC1
Details | refractive index, [1] | relative permittivity at zero frequency, [2]
x1 = 0.1 | 1.4498 | 15.16
x1 = 0.2 | 1.4512 | 14.63
x1 = 0.3 | 1.4527 | 14.24
x1 = 0.4 | 1.4542 | 13.99
x1 = 0.5 | 1.4558 | 13.91
x1 = 0.6 | 1.4574 | 13.98
x1 = 0.7 | 1.4591 | 14.2
x1 = 0.8 | 1.4608 | 14.57
x1 = 0.9 | 1.4626 | 15.08
x1 = 1 | 1.4646 | 15.71

CCCCCCCCCCO [decan-1-ol]
Details | mass density [kg/m3] | refractive index | relative permittivity at zero frequency
[3] | 826.71 | – | –
[4] | – | 1.4352 | –
[5] | – | – | 7.74

CCCCCCO [hexan-1-ol]
Details | mass density [kg/m3] | refractive index | relative permittivity at zero frequency
[3] | 815.99 | – | –
[4] | – | 1.4161 | –
[5] | – | – | 13.06

C1CCCCC1 [cyclohexane] + O=C1CCCCC1
x2 = 0
Details | refractive index | relative permittivity at zero frequency
[1] | 1.4235 | –
[2] | – | 2.021 and 2.02

O=C1CCCC1 [cyclopentanone] + C1CCCCC1
Details | refractive index, [1] | relative permittivity at zero frequency, [2]
x1 = 0.1 | 1.4236 | 2.78
x1 = 0.2 | 1.4239 | 3.61
x1 = 0.3 | 1.4244 | 4.51
x1 = 0.4 | 1.4252 | 5.51
x1 = 0.5 | 1.4262 | 6.6
x1 = 0.6 | 1.4274 | 7.78
x1 = 0.7 | 1.4289 | 9.06
x1 = 0.8 | 1.4306 | 10.45
x1 = 0.9 | 1.4325 | 11.94
x1 = 1 | 1.4347 | 13.52

CCCCO [butan-1-ol] + O=C1CCCCC1
x1 = 1
Details | mass density [kg/m3] | refractive index | relative permittivity at zero frequency
[1] | – | 1.3971 | –
[2] | – | – | 17.49
[6] | 805.92 | – | –

C1CCCCC1 [cyclohexane] + OC1CCCCC1
x2 = 0
Details | refractive index | relative permittivity at zero frequency
[1] | 1.4235 | –
[2] | – | 2.021

O=C1CCCCC1 [cyclohexanone] + OC1CCCCC1
x2 = 0
Details | refractive index | relative permittivity at zero frequency
[1] | 1.4485 | –
[2] | – | 15.81

CCCCCCCCCCO [decan-1-ol] + O=C1CCCCC1
x1 = 1
Details | mass density [kg/m3] | refractive index | relative permittivity at zero frequency
[1] | – | 1.4352 | –
[2] | – | – | 7.74
[6] | 826.71 | – | –

C1CCCCC1 [cyclohexane]
Details | refractive index | relative permittivity at zero frequency
[4] | 1.4235 | –
[5] | – | 2.021 and 2.02

CCCCO [butan-1-ol]
Details | mass density [kg/m3] | refractive index | relative permittivity at zero frequency
[3] | 805.92 | – | –
[4] | – | 1.3971 | –
[5] | – | – | 17.49

O=C1CCCC1 [cyclopentanone]
Details | refractive index | relative permittivity at zero frequency
[4] | 1.4347 | –
[5] | – | 13.52

CCO [ethanol]
Details | mass density [kg/m3] | refractive index | relative permittivity at zero frequency
[3] | 785.26 | – | –
[4] | – | 1.3594 | –
[5] | – | – | 24.37

CCO [ethanol] + O=C1CCCCC1
x1 = 1
Details | mass density [kg/m3] | refractive index | relative permittivity at zero frequency
[1] | – | 1.3594 | –
[2] | – | – | 24.37
[6] | 785.26 | – | –

CCCCCCO [hexan-1-ol] + O=C1CCCCC1
x1 = 1
Details | mass density [kg/m3] | refractive index | relative permittivity at zero frequency
[1] | – | 1.4161 | –
[2] | – | – | 13.06
[6] | 815.99 | – | –

O=C1CCCCC1 [cyclohexanone] + CCCCCCCCCCO
Details | mass density, [6] [kg/m3] | refractive index, [1] | relative permittivity at zero frequency, [2]
x2 = 0 | 942.47 | 1.4485 | 15.81
x2 = 0.1 | 922.31 | 1.4458 | 14.59
x2 = 0.2 | 904.8 | 1.4436 | 13.46
x2 = 0.3 | 889.41 | 1.4416 | 12.41
x2 = 0.4 | 875.85 | 1.4399 | 11.44
x2 = 0.5 | 863.79 | 1.4385 | 10.57
x2 = 0.6 | 853.13 | 1.4374 | 9.81
x2 = 0.7 | 843.78 | 1.4364 | 9.15
x2 = 0.8 | 836.26 | 1.4358 | 8.59
x2 = 0.9 | 830.72 | 1.4354 | 8.12

O=C1CCCCC1 [cyclohexanone] + CCCCO
Details | mass density, [6] [kg/m3] | refractive index, [1] | relative permittivity at zero frequency, [2]
x2 = 0 | 942.47 | 1.4485 | 15.81
x2 = 0.1 | 932.83 | 1.4441 | 15.3
x2 = 0.2 | 922.35 | 1.4396 | 14.95
x2 = 0.3 | 910.57 | 1.4347 | 14.71
x2 = 0.4 | 897.77 | 1.4301 | 14.62
x2 = 0.5 | 883.98 | 1.4253 | 14.71
x2 = 0.6 | 869.51 | 1.4204 | 14.97
x2 = 0.7 | 854.54 | 1.4147 | 15.39
x2 = 0.8 | 838.96 | 1.4086 | 15.97
x2 = 0.9 | 822.78 | 1.4035 | 16.68

C1CCCCC1 [cyclohexane] + O=C1CCCC1
x2 = 0
Details | refractive index | relative permittivity at zero frequency
[1] | 1.4235 | –
[2] | – | 2.02

O=C1CCCCC1 [cyclohexanone]
Details | mass density [kg/m3] | refractive index | relative permittivity at zero frequency
[3] | 942.47 | – | –
[4] | – | 1.4485 | –
[5] | – | – | 15.81

OC1CCCCC1 [cyclohexanol] + O=C1CCCC1
x1 = 1
Details | refractive index | relative permittivity at zero frequency
[1] | 1.4646 | –
[2] | – | 15.71

O=C1CCCCC1 [cyclohexanone] + C1CCCCC1
Details | refractive index, [1] | relative permittivity at zero frequency, [2]
x1 = 0.02 | 1.4239 | 2.189
x1 = 0.04 | 1.4243 | 2.364
x1 = 0.05 | 1.4245 | 2.467
x1 = 0.06 | 1.4247 | 2.563
x1 = 0.08 | 1.4251 | 2.746
x1 = 0.1 | 1.4255 and 1.4254 | 2.932 and 3
x1 = 0.2 | 1.4276 | 4.12
x1 = 0.3 | 1.4298 | 5.35
x1 = 0.4 | 1.4322 | 6.66
x1 = 0.5 | 1.4347 | 8.03
x1 = 0.6 | 1.4372 | 9.45
x1 = 0.7 | 1.4399 | 10.94
x1 = 0.8 | 1.4427 | 12.49
x1 = 0.9 | 1.4456 | 14.11
x1 = 1 | 1.4485 | 15.81

O=C1CCCC1 [cyclopentanone] + OC1CCCCC1
Details | refractive index, [1] | relative permittivity at zero frequency, [2]
x2 = 0 | 1.4347 | 13.52
x2 = 0.1 | 1.4372 | 13.1
x2 = 0.2 | 1.4397 | 12.78
x2 = 0.3 | 1.4423 | 12.55
x2 = 0.4 | 1.445 | 12.42
x2 = 0.5 | 1.4479 | 12.43
x2 = 0.6 | 1.4509 | 12.61
x2 = 0.7 | 1.4541 | 12.99
x2 = 0.8 | 1.4575 | 13.59
x2 = 0.9 | 1.461 | 14.48

O=C1CCCCC1 [cyclohexanone] + CCCCCCCCO
Details | mass density, [6] [kg/m3] | refractive index, [1] | relative permittivity at zero frequency, [2]
x2 = 0 | 942.47 | 1.4485 | 15.81
x2 = 0.1 | 924.71 | 1.4456 | 14.72
x2 = 0.2 | 908.6 | 1.443 | 13.74
x2 = 0.3 | 893.85 | 1.4403 | 12.87
x2 = 0.4 | 880.35 | 1.438 | 12.12
x2 = 0.5 | 867.97 | 1.4358 | 11.47
x2 = 0.6 | 856.69 | 1.4338 | 10.93
x2 = 0.7 | 846.41 | 1.4319 | 10.5
x2 = 0.8 | 837.29 | 1.4303 | 10.18
x2 = 0.9 | 829.11 | 1.4289 | 9.97

OC1CCCCC1 [cyclohexanol] + C1CCCCC1
Details | refractive index, [1] | relative permittivity at zero frequency, [2]
x1 = 0.02 | 1.424 | 2.084
x1 = 0.04 | 1.4245 | 2.151
x1 = 0.05 | 1.4247 | 2.184
x1 = 0.06 | 1.425 | 2.219
x1 = 0.08 | 1.4255 | 2.285
x1 = 0.1 | 1.426 | 2.354

O=C1CCCCC1 [cyclohexanone] + CCCCCCO
Details | mass density, [6] [kg/m3] | refractive index, [1] | relative permittivity at zero frequency, [2]
x2 = 0 | 942.47 | 1.4485 | 15.81
x2 = 0.1 | 927.39 | 1.4444 | 14.93
x2 = 0.2 | 912.83 | 1.4405 | 14.2
x2 = 0.3 | 898.77 | 1.4367 | 13.59
x2 = 0.4 | 885.19 | 1.4332 | 13.13
x2 = 0.5 | 872.11 | 1.4299 | 12.79
x2 = 0.6 | 859.53 | 1.4267 | 12.58
x2 = 0.7 | 847.55 | 1.4237 | 12.5
x2 = 0.8 | 836.36 | 1.4209 | 12.57
x2 = 0.9 | 825.91 | 1.4184 | 12.76

CCCCCCCCO [octan-1-ol]
Details | mass density [kg/m3] | refractive index | relative permittivity at zero frequency
[3] | 821.98 | – | –
[4] | – | 1.4276 | –
[5] | – | – | 9.85

OC1CCCCC1 [cyclohexanol]
Details | refractive index | relative permittivity at zero frequency
[4] | 1.4646 | –
[5] | – | 15.71

O=C1CCCCC1 [cyclohexanone] + CCO
Details | mass density, [6] [kg/m3] | refractive index, [1] | relative permittivity at zero frequency, [2]
x2 = 0 | 942.47 | 1.4485 | 15.81
x2 = 0.1 | 938.01 | 1.4449 | 15.84
x2 = 0.2 | 930.92 | 1.4401 | 15.98
x2 = 0.3 | 921.48 | 1.4339 | 16.36
x2 = 0.4 | 910.02 | 1.4268 | 16.97
x2 = 0.5 | 896.25 | 1.4187 | 17.76
x2 = 0.6 | 879.92 | 1.4094 | 18.72
x2 = 0.7 | 860.95 | 1.3988 | 19.88
x2 = 0.8 | 839.21 | 1.3869 | 21.19
x2 = 0.9 | 814.29 | 1.3739 | 22.68

CCCCCCCCO [octan-1-ol] + O=C1CCCCC1
x1 = 1
Details | mass density [kg/m3] | refractive index | relative permittivity at zero frequency
[1] | – | 1.4276 | –
[2] | – | – | 9.85
[6] | 821.98 | – | –
